Key:
Assay type in all cases: in vivo
[1] = system: Plutella xylostella (Diamond-Back Moth); assay: Example B3: Plutella xylostella larvicide, feeding/contact activity, preventative (artificial diet, 96-well); conditions: 216 h, application rate of 500 ppm, mortality assessed 9 days after treatment
Description: Example B3: Plutella xylostella (Diamond-Back Moth) larvicide, feeding/contact activity, preventative Artificial diet was dispensed into a 96-well microtiter plate and treated with aqueous test solutions prepared from 10′000 ppm DMSO stock solutions. Eggs were suspended above the treated diet and first instar larvae hatched onto the diet. Mortality was assessed 9 days after treatment.

[2] = system: Spodoptera littoralis (Egyptian Cotton Leaf Worm); assay: Example B4: Activity against Spodoptera littoralis (sprayed cotton leaf discs); conditions: foliar, 72 h, application rate of 200 ppm, L1 larvae, 3 days after infestation
Description: Example B4: Activity Against Spodoptera littoralis (Egyptian Cotton Leaf Worm)
Cotton leaf discs were placed on agar in 24-well microtiter plates and sprayed with aqueous test solutions prepared from 10′000 ppm DMSO stock solutions. After drying the leaf discs were infested with five L1 larvae. The samples were assessed for mortality, anti-feedant effect, and growth inhibition in comparison to untreated samples 3 days after infestation. Control of Spodoptera littoralis by a test sample is given when at least one of the categories mortality, anti-feedant effect, and growth inhibition is higher than the untreated sample.

[3] = system: Diabrotica balteata (Corn Root Worm); assay: Example B6: Activity against Diabrotica balteata (sprayed maize sprouts); conditions: 96 h, application rate of 200 ppm, L2 larvae, 4 days after infestation, read-out: effect in at least one of the two categories (mortality or growth inhibition)
Description: Example B6: Activity Against Diabrotica Balteata (Corn Root Worm)
Maize sprouts placed onto an agar layer in 24-well microtiter plates were treated with aqueous test solutions prepared from 10′000 ppm DMSO stock solutions by spraying. After drying, the plates were infested with L2 larvae (6 to 10 per well). The samples were assessed for mortality and growth inhibition in comparison to untreated samples 4 days after infestation.

[4] = system: Plutella xylostella (Diamond Back Moth); assay: Example B11: Activity against Plutella xylostella (artificial diet, 24-well, L2 larvae); conditions: 120 h, application rate of 200 ppm, 5 days after infestation, read-out: effect in at least one of the two categories (mortality or growth inhibition)
Description: Example B11: Activity Against Plutella xylostella (Diamond Back Moth)
24-well microtiter plates with artificial diet were treated with aqueous test solutions prepared from 10′000 ppm DMSO stock solutions by pipetting. After drying, the plates were infested with L2 larvae (10 to 15 per well). The samples were assessed for mortality and growth inhibition in comparison to untreated samples 5 days after infestation.

[5] = system: Tetranychus urticae (Two-Spotted Spider Mite); assay: Example B12: Activity against Tetranychus urticae (sprayed bean leaf discs); conditions: foliar, 192 h, application rate of 200 ppm, mixed population (mobile stages), 8 days after infestation
Description: Example B12: Activity Against Tetranychus urticae (Two-Spotted Spider Mite)
Bean leaf discs on agar in 24-well microtiter plates were sprayed with aqueous test solutions prepared from 10′000 ppm DMSO stock solutions. After drying the leaf discs were infested with a mite population of mixed ages. The samples were assessed for mortality on mixed population (mobile stages) 8 days after infestation.

[6] = system: Myzus persicae (Green Peach Aphid); assay: Example B8: Activity against Myzus persicae (sprayed sunflower leaf discs); conditions: foliar, 144 h, application rate of 200 ppm, mixed ages, 6 days after infestation
Description: Example B8: Activity Against Myzus persicae (Green Peach Aphid)
Sunflower leaf discs were placed onto agar in a 24-well microtiter plate and sprayed with aqueous test solutions prepared from 10′000 ppm DMSO stock solutions. After drying, the leaf discs were infested with an aphid population of mixed ages. The samples were assessed for mortality 6 days after infestation.

[7] = system: Myzus persicae (Green Peach Aphid); assay: Example B10: Activity against Myzus persicae (sucrose solution, Parafilm feeding); conditions: 120 h, test rate of 12 ppm, 5 days after infestation
From the text: Example B10: Activity Against Myzus persicae (Green Peach Aphid)
Test compounds prepared from 10′000 ppm DMSO stock solutions were applied by pipette into 24-well microtiter plates and mixed with sucrose solution. The plates were closed with a stretched Parafilm. A plastic stencil with 24 holes was placed onto the plate and infested pea seedlings were placed directly on the Parafilm. The infested plate was closed with a gel blotting paper and another plastic stencil and then turned upside down. The samples were assessed for mortality 5 days after infestation.

CCS(=O)(=O)c1cc(Br)cnc1-c1cn(-c2cccc(C(F)(F)F)c2)nn1 [Compound P12, 5-bromo-3-ethylsulfonyl-2-[1-[3-(trifluoromethyl)phenyl]triazol-4-yl]pyridine] was tested, and the pest or weed control at 500 ppm [1] was no less than 70%, the percent control (mortality, anti-feedant effect or growth inhibition) at 200 ppm [2] was no less than 80% and the effect (mortality or growth inhibition) at 200 ppm [3] was no less than 80%. For the same compound, the percent effect (mortality or growth inhibition) at 200 ppm [4] was no less than 80% and the mortality at 200 ppm [5] was no less than 80%.
With CCSc1cccnc1-c1cn(-c2cncc(C(F)(F)F)c2)nn1 [Compound P19] the pest or weed control at 500 ppm [1] was no less than 70%, the effect (mortality or growth inhibition) at 200 ppm [3] was no less than 80% and the mortality at 200 ppm [6] was no less than 80%. The mortality at 12 ppm [7] was no less than 80%.
